Measurements published in patent publication US20130072430A1, “METHODS FOR TREATMENT OR PROPHYLAXIS OF KIDNEY OR LIVER DYSFUNCTION” (NPS PHARMACEUTICALS, INC., priority 2010, published 2013).

System: Human patients with short bowel syndrome
Experiment: Example 1: liver diagnostic biomarkers (total bilirubin, ALT, AST, ALP) in short bowel syndrome patients, every four weeks for 24 weeks
Type: in vivo
Set-up: AST (SGOT) Change from Baseline, Median / ALT (SGPT), Median / TOTAL BILIRUBIN, Median / TOTAL BILIRUBIN Change from Baseline, Median / ALT (SGPT) Change from Baseline, Median / AST (SGOT), Median: unit not given here
Procedure: Human patients with short bowel syndrome were divided into three groups: a control group (16 total individuals) to receive placebo, an experimental group (35 total individuals) to receive teduglutide at 0.05 mg/kg/day throughout the study, and an experimental group (32 total individuals) to receive teduglutide at 0.1 mg/kg/day throughout the study. Patients were treated by subcutaneous injection of placebo or the appropriate dose of teduglutide. As individuals with short bowel syndrome are likely to experience associated liver and kidney disease, known biomarkers of liver and kidney function were monitored every four weeks, for 24 weeks. The liver biomarkers tested included total bilirubin, ALT and AST and ALP. The kidney biomarkers tested included urea nitrogen, creatinine and GFR. Before administration of placebo or teduglutide, diagnostic biomarker levels were tested to establish a baseline for each individual.
To visualize the effect of GLP-2 on the levels of the diagnostic biomarkers, the average change from baseline was calculated for the placebo and teduglutide treated groups for each visit after a baseline was established. The average change from baseline of each group is depicted in FIGS. […]. The numerical figures for each diaanostic biomarker at each time point are depicted in Table 1.
The efficacy of teduglutide in treating liver dysfunction was further tested by sorting the data into two groups: individuals with abnormal baseline values of liver diagnostic biomarkers; and individuals with normal baseline values of liver diagnostic biomarkers. The mean diagnostic biomarker change from baseline for these two groups is shown for ALT (FIGS. 5 and 6) and AST (FIGS. 7 and 8). […] These changes were significant when compared to baseline levels for the group, and when compared to placebo (see FIGS. 5 and 7).
The raw data for this sorting is reproduced in Table 2 below.

[1] = Week 4, range <−5%, teduglutide 0.05 mg/kg/day
[2] = Week 4, range <−5%, teduglutide 0.1 mg/kg/day
[3] = Week 4, range >5%, teduglutide 0.05 mg/kg/day
[4] = Week 4, range >5%, teduglutide 0.1 mg/kg/day
[5] = Week 4, range −5%<= and <=5%, teduglutide 0.05 mg/kg/day
[6] = Week 4, range −5%<= and <=5%, teduglutide 0.1 mg/kg/day
[7] = Week 8, range <−5%, teduglutide 0.05 mg/kg/day
[8] = Week 8, range <−5%, teduglutide 0.1 mg/kg/day
[9] = Week 8, range >5%, teduglutide 0.05 mg/kg/day
[10] = Week 8, range >5%, teduglutide 0.1 mg/kg/day
[11] = Week 8, range −5%<= and <=5%, teduglutide 0.05 mg/kg/day
[12] = Week 8, range −5%<= and <=5%, teduglutide 0.1 mg/kg/day
[13] = Week 12, range <−5%, teduglutide 0.05 mg/kg/day
[14] = Week 12, range <−5%, teduglutide 0.1 mg/kg/day
[15] = Week 12, range >5%, teduglutide 0.05 mg/kg/day
[16] = Week 12, range >5%, teduglutide 0.1 mg/kg/day

Structure (SMILES): CC[C@H](C)[C@H](NC(=O)[C@H](Cc1ccccc1)NC(=O)[C@H](CC(=O)O)NC(=O)[C@H](CCCNC(=N)N)NC(=O)[C@H](C)NC(=O)[C@H](C)NC(=O)[C@H](CC(C)C)NC(=O)[C@H](CC(N)=O)NC(=O)[C@H](CC(=O)O)NC(=O)[C@H](CC(C)C)NC(=O)[C@@H](NC(=O)[C@@H](NC(=O)[C@H](CC(N)=O)NC(=O)[C@H](CCSC)NC(=O)[C@H](CCC(=O)O)NC(=O)[C@H](CC(=O)O)NC(=O)[C@H](CO)NC(=O)[C@H](Cc1ccccc1)NC(=O)[C@H](CO)NC(=O)CNC(=O)[C@H](CC(=O)O)NC(=O)CNC(=O)[C@@H](N)Cc1c[nH]cn1)[C@@H](C)O)[C@@H](C)CC)C(=O)N[C@@H](CC(N)=O)C(=O)N[C@@H](Cc1c[nH]c2ccccc12)C(=O)N[C@@H](CC(C)C)C(=O)N[C@H](C(=O)N[C@@H](CCC(N)=O)C(=O)N[C@H](C(=O)N[C@@H](CCCCN)C(=O)N[C@H](C(=O)N[C@H](C(=O)N[C@@H](CC(=O)O)C(=O)O)[C@@H](C)O)[C@@H](C)CC)[C@@H](C)O)[C@@H](C)CC [teduglutide]
- AST (SGOT), Median (0.10 mg/kg/day, DW20): 30.0
- TOTAL BILIRUBIN Change from Baseline, Mean (SD) (0.10 mg/kg/day, DW20): −2.7 (14.42)
- TOTAL BILIRUBIN Change from Baseline, Median (0.10 mg/kg/day, DW20): 0.0
- TOTAL BILIRUBIN, Mean (SD) (0.10 mg/kg/day, DW20): 10.4 (10.13)
- TOTAL BILIRUBIN, Median (0.10 mg/kg/day, DW20): 7.0
- ALKALINE PHOSPHATASE Change from Baseline, Mean (SD) (0.10 mg/kg/day, DW24): −18.9 (67.08)
- ALKALINE PHOSPHATASE Change from Baseline, Median (0.10 mg/kg/day, DW24): −21.0
- ALKALINE PHOSPHATASE, Mean (SD) (0.10 mg/kg/day, DW24): 136.7 (85.50)
- ALKALINE PHOSPHATASE, Median (0.10 mg/kg/day, DW24): 105.0
- ALT (SGPT) Change from Baseline, Mean (SD) (0.10 mg/kg/day, DW24): −7.3 (32.62)
- ALT (SGPT) Change from Baseline, Median (0.10 mg/kg/day, DW24): −4.0
- ALT (SGPT), Mean (SD) (0.10 mg/kg/day, DW24): 42.2 (27.28)
- ALT (SGPT), Median (0.10 mg/kg/day, DW24): 37.0
- AST (SGOT) Change from Baseline, Mean (SD) (0.10 mg/kg/day, DW24): −4.8 (23.34)
- AST (SGOT) Change from Baseline, Median (0.10 mg/kg/day, DW24): −3.0
- AST (SGOT), Mean (SD) (0.10 mg/kg/day, DW24): 35.3 (18.69)
- AST (SGOT), Median (0.10 mg/kg/day, DW24): 32.0
- TOTAL BILIRUBIN Change from Baseline, Mean (SD) (0.10 mg/kg/day, DW24): −2.4 (12.73)
- TOTAL BILIRUBIN Change from Baseline, Median (0.10 mg/kg/day, DW24): 0.0
- TOTAL BILIRUBIN, Mean (SD) (0.10 mg/kg/day, DW24): 11.3 (12.28)
- TOTAL BILIRUBIN, Median (0.10 mg/kg/day, DW24): 9.0
- ALKALINE PHOSPHATASE change from baseline: patients in range, n(%) [1]: 21(60.0%)
- ALT (SGPT) change from baseline: patients in range, n(%) [1]: 22(62.9%)
- AST (SGOT) change from baseline: patients in range, n(%) [1]: 21(60.0%)
- TOTAL BILIRUBIN change from baseline: patients in range, n(%) [1]: 12(34.3%)
- ALKALINE PHOSPHATASE change from baseline: patients in range, n(%) [2]: 17(53.1%)
- ALT (SGPT) change from baseline: patients in range, n(%) [2]: 20(62.5%)
- AST (SGOT) change from baseline: patients in range, n(%) [2]: 17(53.1%)
- TOTAL BILIRUBIN change from baseline: patients in range, n(%) [2]: 16(50.0%)
- ALKALINE PHOSPHATASE change from baseline: patients in range, n(%) [3]: 3(8.6%)
- ALT (SGPT) change from baseline: patients in range, n(%) [3]: 8(22.9%)
- AST (SGOT) change from baseline: patients in range, n(%) [3]: 5(14.3%)
- TOTAL BILIRUBIN change from baseline: patients in range, n(%) [3]: 8(22.9%)
- ALKALINE PHOSPHATASE change from baseline: patients in range, n(%) [4]: 11(34.4%)
- ALT (SGPT) change from baseline: patients in range, n(%) [4]: 10(31.3%)
- AST (SGOT) change from baseline: patients in range, n(%) [4]: 10(31.3%)
- TOTAL BILIRUBIN change from baseline: patients in range, n(%) [4]: 12(37.5%)
- ALKALINE PHOSPHATASE change from baseline: patients in range, n(%) [5]: 6(17.1%)
- ALT (SGPT) change from baseline: patients in range, n(%) [5]: 0(0.0%)
- AST (SGOT) change from baseline: patients in range, n(%) [5]: 2(5.7%)
- TOTAL BILIRUBIN change from baseline: patients in range, n(%) [5]: 6(17.1%)
- ALKALINE PHOSPHATASE change from baseline: patients in range, n(%) [6]: 4(12.5%)
- ALT (SGPT) change from baseline: patients in range, n(%) [6]: 2(6.3%)
- AST (SGOT) change from baseline: patients in range, n(%) [6]: 4(12.5%)
- TOTAL BILIRUBIN change from baseline: patients in range, n(%) [6]: 3(9.4%)
- ALKALINE PHOSPHATASE change from baseline: patients in range, n(%) [7]: 21(60.0%)
- ALT (SGPT) change from baseline: patients in range, n(%) [7]: 16(45.7%)
- AST (SGOT) change from baseline: patients in range, n(%) [7]: 16(45.7%)
- TOTAL BILIRUBIN change from baseline: patients in range, n(%) [7]: 13(37.1%)
- ALKALINE PHOSPHATASE change from baseline: patients in range, n(%) [8]: 24(75.0%)
- ALT (SGPT) change from baseline: patients in range, n(%) [8]: 20(62.5%)
- AST (SGOT) change from baseline: patients in range, n(%) [8]: 21(65.6%)
- TOTAL BILIRUBIN change from baseline: patients in range, n(%) [8]: 16(50.0%)
- ALKALINE PHOSPHATASE change from baseline: patients in range, n(%) [9]: 6(17.1%)
- ALT (SGPT) change from baseline: patients in range, n(%) [9]: 9(25.7%)
- AST (SGOT) change from baseline: patients in range, n(%) [9]: 9(25.7%)
- TOTAL BILIRUBIN change from baseline: patients in range, n(%) [9]: 8(22.9%)
- ALKALINE PHOSPHATASE change from baseline: patients in range, n(%) [10]: 5(15.6%)
- ALT (SGPT) change from baseline: patients in range, n(%) [10]: 8(25.0%)
- AST (SGOT) change from baseline: patients in range, n(%) [10]: 5(15.6%)
- TOTAL BILIRUBIN change from baseline: patients in range, n(%) [10]: 7(21.9%)
- ALKALINE PHOSPHATASE change from baseline: patients in range, n(%) [11]: 2(5.7%)
- ALT (SGPT) change from baseline: patients in range, n(%) [11]: 4(11.4%)
- AST (SGOT) change from baseline: patients in range, n(%) [11]: 4(11.4%)
- TOTAL BILIRUBIN change from baseline: patients in range, n(%) [11]: 4(11.4%)
- ALKALINE PHOSPHATASE change from baseline: patients in range, n(%) [12]: 2(6.3%)
- ALT (SGPT) change from baseline: patients in range, n(%) [12]: 2(6.3%)
- AST (SGOT) change from baseline: patients in range, n(%) [12]: 4(12.5%)
- TOTAL BILIRUBIN change from baseline: patients in range, n(%) [12]: 6(18.8%)
- ALKALINE PHOSPHATASE change from baseline: patients in range, n(%) [13]: 23(65.7%)
- ALT (SGPT) change from baseline: patients in range, n(%) [13]: 19(54.3%)
- AST (SGOT) change from baseline: patients in range, n(%) [13]: 19(54.3%)
- TOTAL BILIRUBIN change from baseline: patients in range, n(%) [13]: 14(40.0%)
- ALKALINE PHOSPHATASE change from baseline: patients in range, n(%) [14]: 19(59.4%)
- ALT (SGPT) change from baseline: patients in range, n(%) [14]: 20(62.5%)
- AST (SGOT) change from baseline: patients in range, n(%) [14]: 15(46.9%)
- TOTAL BILIRUBIN change from baseline: patients in range, n(%) [14]: 14(43.8%)
- ALKALINE PHOSPHATASE change from baseline: patients in range, n(%) [15]: 2(5.7%)
- ALT (SGPT) change from baseline: patients in range, n(%) [15]: 4(11.4%)
- AST (SGOT) change from baseline: patients in range, n(%) [15]: 5(14.3%)
- TOTAL BILIRUBIN change from baseline: patients in range, n(%) [15]: 6(17.1%)
- ALKALINE PHOSPHATASE change from baseline: patients in range, n(%) [16]: 10(31.3%)
- ALT (SGPT) change from baseline: patients in range, n(%) [16]: 7(21.9%)
- AST (SGOT) change from baseline: patients in range, n(%) [16]: 10(31.3%)
- TOTAL BILIRUBIN change from baseline: patients in range, n(%) [16]: 9(28.1%)
- ALKALINE PHOSPHATASE change from baseline: patients in range, n(%) (Week 12, range −5%<= and <=5%, teduglutide 0.05 mg/kg/day): 2(5.7%)
